Patent US6790644B2, “1,3-dicarbonyl-dioxygenase—a new c-c-bond cleaving enzyme” (Biocatalytics, Inc., priority 2001, dated 2004)

Target: wild-type 1,3-dicarbonyl-dioxygenase (Acinetobacter johnsonii, UniProt Q8GNT2)
Assay: Relative activity of wild-type enzyme at non-limiting substrate concentrations
Assay type: biochemical
Conditions: not given
Procedure: (§1) The reaction rates were determined by using the microcomputer regression program provided with the spectrophotometer (Winspec) based on the first ten absorbance measurements made at 5-s intervals.
(§2) Oxygen consumption during the enzyme reaction was measured with an oxygen-electrode-cell (Digital Oxygen System Model 10, Rank Brothers Ltd., Cambridge, England) as described previously (Beechey, R. B. and Ribbons, D. W. (1971). ‘Methods in Microbiology’.V. 6B. Edited by J. R. Norris and D. W. Ribbons. Academic press, London. ‘Oxygen electrode measurements’ (Chapter II) pp. 29-52.). The reaction mixture contained air-saturated KH2PO4-buffer, 50 mM, pH 7.5 at 25° C. (thermostat). The oxygen-electrode was calibrated by the sodium-sulfite-method. Varying concentrations of substrate (0.01-0.3 mM) were added and the resulting decrease of oxygen was determined.

CC(=O)CC(=O)c1ccccc1 [1-Phenyl-1,3-butandion, 1-Phenyl-1,3-butanedione] and CC(=O)CC(=O)C(C)(C)C [5,5-Dimethylhexan-2,4-dion, 5,5-Dimethylhexane-2,4-dione] are the same in Vmax wild-type: 0.05 for the first, 0.05 for the second.

Going from CC(=O)C(C)C(C)=O [3-Methylpentandion, 3-Methylpentanedione] to CCCCC(=O)CC(C)=O [2,4-Octandion, 2,4-Octanedione], the Vmax wild-type falls from 0.83 to 0.50.

Compared with CCCCCC(=O)CC(C)=O [2,4-Nonanedione], CCOC(=O)C(=O)CC(C)=O [2,4-Dioxo-pentanoic-acid-ethyl-ester] is lower in Vmax wild-type: 0.30 for the first, 0.10 for the second.

Going from CC(=O)C1CCCC1=O (stereo not drawn) [2-Acetocyclopentanone] to CC(=O)C1CCCCC1=O (stereo not drawn) [2-Acetocyclohexanone], the Vmax wild-type rises from 0.31 to 0.56.

Target: T1, 1,3-dicarbonyl-dioxygenase (Acinetobacter johnsonii, UniProt Q8GNT2)
Assay: Products of various substrates determined by HPLC (cleavage stoichiometry, partially purified enzyme)
Assay type: biochemical
Conditions: substrate 1.6 mM, 25° C., one hour
Source text: The products of the enzyme reaction were identified directly from the reaction mixture by in situ ^1H-NMR-spectroscopy (Pokorny, D., L. Brecker, M. Pogorevc, H. Griengl, W. Steiner, T. Kappe, and D. W. Ribbons. 1999. Proton-Nuclear Magnetic Resonance Analyses of the Substrate Specificity of a β-Ketolase from Pseudomonas putida, Acetopyruvate Hydrolase. J. Bacteriol. 181: 5051-5059.). Therefore a 200 MHz narrow bore magnet (Varian Gemini™ 2000, Varian, Inc., Palo Alto, Calif.) and a 5 mm broadband probe head were used. The NMR tube was rotated at 20 rps. For a lock a D2O vortex capillary was added to avoid ^1H/D exchange reactions. The overwhelming water-signal was suppressed with a presaturation method (Guéron, M., P. Plateau and M. Decorps. 1991. Solvent signal suppression in NMR. Prog. NMR Spectrosc. 23: 135-209. Hore, J. P. 1989. Solvent suppression. p. 64. In N. J. Oppenheimer and J. T. James (eds.), Methods Enzymol. 176. Academic Press, Inc., San Diego.). The following parameters were adjusted for a ^1H-frequency of 200 MHz: presaturation-duration of 1.0 s, ^1H-pulse-angle of 90, an acquisition-time of 2.0 s and a relaxation delay of 1.5 s. 64 Scans were accumulated and after a zero filling to 32 k datapoints the free induction decay was Fourier transformed. The water signal (4.70 ppm) was used as a reference. For standard reaction analytics HPLC-measurements were performed (Hewlett-Packard, column: Aminex-HPX-87H, UV- and RI-detector, eluent Sulfuric acid 0.005 M).
The cleavage-stoichiometry of several non-symmetrical substrates was also investigated, in order to be able to determine the regiospecificity of the enzyme. This was done by conversion of the respective substrate with partially purified enzyme. Methylglyoxal and acetate formed were measured by HPLC. Remaining substrate was calculated.

For CC(=O)CC(=O)c1ccccc1 [1-Phenyl-1,3-butandion, 1-Phenyl-1,3-butanedione], the Methylglyoxal/Acetate was 9.

Same assay, conditions: substrate 1.6 mM, 25° C., one hour; remaining substrate calculated

In the case of CC(=O)CC(=O)c1ccccc1 [1-Phenyl-1,3-butandion, 1-Phenyl-1,3-butanedione], the “Substrate % (remaining)” value is reported as 24%.

Same assay, conditions: substrate 1.6 mM, 25° C., oxygen saturated buffer, one hour

For CC(=O)CC(=O)c1ccccc1 [1-Phenyl-1,3-butandion, 1-Phenyl-1,3-butanedione], the Acetate % was 8%.

CC(=O)CC(=O)c1ccccc1 [1-Phenyl-1,3-butandion, 1-Phenyl-1,3-butanedione] showed a Methylglyoxal % of 68%.

Same assay, conditions: substrate 4 mM, 25° C., one hour

Compared with CCCCCC(=O)CC(C)=O [2,4-Nonanedione], CCCCC(=O)CC(C)=O [2,4-Octandion, 2,4-Octanedione] is lower in Methylglyoxal/Acetate: 1.4 for the first, 0.5 for the second.

With CC(=O)CC(=O)C(C)(C)C [5,5-Dimethylhexan-2,4-dion, 5,5-Dimethylhexane-2,4-dione] the Methylglyoxal/Acetate was 3.3.

Same assay, conditions: substrate 4 mM, 25° C., one hour; remaining substrate calculated

Compared with CC(=O)C(C)C(C)=O [3-Methylpentandion, 3-Methylpentanedione], CC(=O)CC(=O)C(C)(C)C [5,5-Dimethylhexan-2,4-dion, 5,5-Dimethylhexane-2,4-dione] is lower in “Substrate % (remaining)” value: 18% for the first, 9% for the second.

First: CCCCCC(=O)CC(C)=O [2,4-Nonanedione]
Second: CCCCC(=O)CC(C)=O [2,4-Octandion, 2,4-Octanedione]
The “Substrate % (remaining)” value of the first is lower: 17% for the first, 18% for the second.

Same assay, conditions: substrate 4 mM, 25° C., oxygen saturated buffer, one hour

Going from CC(=O)C(C)C(C)=O [3-Methylpentandion, 3-Methylpentanedione] to CC(=O)CC(=O)C(C)(C)C [5,5-Dimethylhexan-2,4-dion, 5,5-Dimethylhexane-2,4-dione], the Acetate % falls from 82% to 21%.

First: CCCCCC(=O)CC(C)=O [2,4-Nonanedione]
Second: CCCCC(=O)CC(C)=O [2,4-Octandion, 2,4-Octanedione]
The Acetate % of the first is lower: 35% for the first, 55% for the second.

CC(=O)C1CCCC1=O (stereo not drawn) [2-Acetocyclopentanone] was tested, and the Acetate % was 90%.

First: CCCCCC(=O)CC(C)=O [2,4-Nonanedione]
Second: CCCCC(=O)CC(C)=O [2,4-Octandion, 2,4-Octanedione]
The Methylglyoxal % of the first is higher: 48% for the first, 27% for the second.

In the case of CC(=O)CC(=O)C(C)(C)C [5,5-Dimethylhexan-2,4-dion, 5,5-Dimethylhexane-2,4-dione], the Methylglyoxal % is reported as 70%.

Target: T1, 1,3-dicarbonyl-dioxygenase
Assay: Substrate spectrum / apparent kinetic constants of purified 1,3-dicarbonyl-dioxygenase (UV assay and oxygen electrode)
Conditions: not given
Procedure: as §1
Substrates were dissolved at a concentration of 0.001-1 mM in KH2PO4-buffer, 50 mM, pH 7.5 using a 10 mM stock solution. Duplicate absorption-measurements of 20 different dilutions were performed at 25° C. The molar absorption coefficients were calculated by linear regression.
as §2
Assuming the Michaelis-Menten-equation, Vmax and Ks values were calculated by non-linear curve-fit by the program microcal-origin. KO2 was estimated by polarographic methods, adding non limiting amounts of substrate (0.5-1 mM) and graphically determining the oxygen concentration at the point of half of the maximum activity. Ks-values were similarly confirmed by polarographic methods, by stepwise addition of substrate to a final concentration of 20-150 μM.

O=C1CCCC(=O)C1 [1,3-Cyclohexanedione] and CC(=O)c1ccccc1O [(2-Hydroxyphenyl-)-ethan-1-one] are the same in Vmaxrel.: 0.00 for the first, 0.00 for the second.

CC(=O)CC(=O)C(=O)O [2,4-Dioxo-pentanoic acid] and CC(=O)C(C)(C)C(C)=O [3,3-Dimethylpentanedione] are the same in Vmaxrel.: 0.00 for the first, 0.00 for the second.

Molecule COC(C)=CC(C)=O [4-Methoxy-3-penten-2-one] has a Vmaxrel. of 0.00.

In the case of O=C1CCCC(=O)C1 [1,3-Cyclohexanedione], the “acceptance as substrate (in words)” value is reported as “not accepted as a substrate”.
With Cc1cccc(O)c1O [methylcatechol] the “acceptance as substrate (in words)” value was “does not accept”.
With CC(=O)C(C)C(C)=O [3-Methylpentandion, 3-Methylpentanedione] the “acceptance as substrate (in words)” value was “quite good reaction rated”.
In the case of CC(=O)CC(=O)C(=O)O [2,4-Dioxo-pentanoic acid], the “acceptance as substrate (in words)” value is reported as “not cleaved”.
In the case of CC(=O)C1CCCC1=O (stereo not drawn) [2-Acetocyclopentanone], the “acceptance as substrate (in words)” value is reported as “quite good reaction rated”.
In the case of CC(=O)C1CCCCC1=O (stereo not drawn) [2-Acetocyclohexanone], the “acceptance as substrate (in words)” value is reported as “quite good reaction rated”.
With COC(C)=CC(C)=O [4-Methoxy-3-penten-2-one] the “acceptance as substrate (in words)” value was “not accepted”.
For CC(=O)CC(=O)C(C)(C)C [5,5-Dimethylhexan-2,4-dion, 5,5-Dimethylhexane-2,4-dione], the “acceptance as substrate (in words)” value was “cleaved at significantly lower rates”.
Oc1ccccc1O [catechol] was tested, and the “acceptance as substrate (in words)” value was “does not accept”.

Same assay, conditions: apparent, relative to acetylacetone = 1.00; purified wild-type enzyme

Going from CC(=O)CC(=O)c1ccccc1 [1-Phenyl-1,3-butandion, 1-Phenyl-1,3-butanedione] to CC(=O)CC(=O)C(C)(C)C [5,5-Dimethylhexan-2,4-dion, 5,5-Dimethylhexane-2,4-dione], the Vmaxrel. rises from 0.15 to 0.25.

First: CC(=O)C(C)C(C)=O [3-Methylpentandion, 3-Methylpentanedione]
Second: CCCCC(=O)CC(C)=O [2,4-Octandion, 2,4-Octanedione]
The Vmaxrel. of the first is lower: 0.25 for the first, 0.58 for the second.

First: CCCCCC(=O)CC(C)=O [2,4-Nonanedione]
Second: CCOC(=O)C(=O)CC(C)=O [2,4-Dioxo-pentanoic-acid-ethyl-ester]
The Vmaxrel. of the first is higher: 0.56 for the first, 0.09 for the second.

Going from CC(=O)C1CCCC1=O (stereo not drawn) [2-Acetocyclopentanone] to CC(=O)C1CCCCC1=O (stereo not drawn) [2-Acetocyclohexanone], the Vmaxrel. rises from 0.52 to 0.58.

Same assay, conditions: apparent; polarographic, estimated from rate of oxygen depletion, substrate 0.5-1 mM

CC(=O)CC(=O)c1ccccc1 [1-Phenyl-1,3-butandion, 1-Phenyl-1,3-butanedione] and CC(=O)CC(=O)C(C)(C)C [5,5-Dimethylhexan-2,4-dion, 5,5-Dimethylhexane-2,4-dione] are within error of each other in KO2: 100 ± 15 µM for the first, 70 ± 15 µM for the second.

Going from CC(=O)C(C)C(C)=O [3-Methylpentandion, 3-Methylpentanedione] to CCCCC(=O)CC(C)=O [2,4-Octandion, 2,4-Octanedione], the KO2 rises from 40 ± 8 µM to 85 ± 15 µM (2.1-fold).

CCCCCC(=O)CC(C)=O [2,4-Nonanedione] and CCOC(=O)C(=O)CC(C)=O [2,4-Dioxo-pentanoic-acid-ethyl-ester] are within error of each other in KO2: 112 ± 15 µM for the first, 91 ± 15 µM for the second.

CC(=O)C1CCCC1=O (stereo not drawn) [2-Acetocyclopentanone] and CC(=O)C1CCCCC1=O (stereo not drawn) [2-Acetocyclohexanone] are within error of each other in KO2: 15 ± 5 µM for the first, 21 ± 5 µM for the second.

Same assay, conditions: oxygen consumed per substrate, oxygen electrode

Compared with CC(=O)CC(=O)c1ccccc1 [1-Phenyl-1,3-butandion, 1-Phenyl-1,3-butanedione], CC(=O)CC(=O)C(C)(C)C [5,5-Dimethylhexan-2,4-dion, 5,5-Dimethylhexane-2,4-dione] is lower in O2/Substrate: 1.0 for the first, 0.9 for the second.

CC(=O)C(C)C(C)=O [3-Methylpentandion, 3-Methylpentanedione] and CCCCC(=O)CC(C)=O [2,4-Octandion, 2,4-Octanedione] are the same in O2/Substrate: 1.0 for the first, 1.0 for the second.

CCCCCC(=O)CC(C)=O [2,4-Nonanedione] and CCOC(=O)C(=O)CC(C)=O [2,4-Dioxo-pentanoic-acid-ethyl-ester] are the same in O2/Substrate: 1.0 for the first, 1.0 for the second.

First: CC(=O)C1CCCC1=O (stereo not drawn) [2-Acetocyclopentanone]
Second: CC(=O)C1CCCCC1=O (stereo not drawn) [2-Acetocyclohexanone]
The O2/Substrate of the first is higher: 1.0 for the first, 0.9 for the second.

Target: T1, 1,3-dicarbonyl-dioxygenase
Assay: not given
Assay type: biochemical
Conditions: not given

With O=S(=O)([O-])[O-].[Mn+2] [MnSO4] the “Relative activity [%] 2 min (reactivation)” value was 0%.

In the case of O=S(=O)([O-])[O-].[Mn+2] [MnSO4], the “Relative activity [%] 10 min (reactivation)” value is reported as 0%.

Target: T2, recombinant 1,3-dicarbonyl-dioxygenase (expressed in E.coli) (Acinetobacter johnsonii, UniProt Q8GNT2)
T2 construct: made in house; host or cells: E. coli XL1 Blue, plasmid pMS470 (tac promoter, NdeI/HindIII)
Assay: Relative activity of recombinant protein at non-limiting substrate concentrations
Assay type: biochemical
Conditions: not given
Procedure: Expression constructs were expressed in E.coli XL1 Blue (Stratagene, La Jolla, Calif.), which was grown to an OD of 1 at 30° C. on rotatory shakers in erlenmeyer flasks, then induced with IPTG (0.3 mM) and incubated for another 5 hours.
as §1, §2

CC(=O)CC(=O)c1ccccc1 [1-Phenyl-1,3-butandion, 1-Phenyl-1,3-butanedione] and CC(=O)CC(=O)C(C)(C)C [5,5-Dimethylhexan-2,4-dion, 5,5-Dimethylhexane-2,4-dione] are the same in Vmax clone: 0.08 for the first, 0.08 for the second.

Compared with CC(=O)C(C)C(C)=O [3-Methylpentandion, 3-Methylpentanedione], CCCCC(=O)CC(C)=O [2,4-Octandion, 2,4-Octanedione] is lower in Vmax clone: 0.85 for the first, 0.60 for the second.

First: CCCCCC(=O)CC(C)=O [2,4-Nonanedione]
Second: CCOC(=O)C(=O)CC(C)=O [2,4-Dioxo-pentanoic-acid-ethyl-ester]
The Vmax clone of the first is higher: 0.25 for the first, 0.08 for the second.

First: CC(=O)C1CCCC1=O (stereo not drawn) [2-Acetocyclopentanone]
Second: CC(=O)C1CCCCC1=O (stereo not drawn) [2-Acetocyclohexanone]
The Vmax clone of the first is lower: 0.43 for the first, 0.48 for the second.
